Patent publication US9302999B2, “Substituted triazoles as herbicides” (E. I. DU PONT DE NEMOURS AND COMPANY, priority 2012, dated 2016)

Key:
Assay type in all cases: in vivo
[1] = test system: common (oilseed) sunflower (Helianthus annuus); experiment: Test C pre-/postemergence: sunflower; settings: Preemergence
Source text: (§1) Seeds of plant species selected from blackgrass (Alopecurus myosuroides), bromegrass, downy (downy bromegrass, Bromus tectorum), foxtail, green (green foxtail, Setaria viridis), ryegrass, Italian (Italian ryegrass, Lolium multiflorum), winter wheat (Triticum aestivum), wild oat (Avena fatua), galium (catchweed bedstraw, Galium aparine), bermudagrass (Cynodon dactylon), surinam grass (Brachiaria decumbens), cocklebur (common cocklebur, Xanthium strumarium), corn (Zea mays), large crabgrass (Digitaria sanguinalis), woolly cupgrass (Eriochloa villosa), foxtail, giant (giant foxtail, Setaria faberii), goosegrass (Eleusine indica), johnsongrass (Sorghum halepense), kochia (Kochia scoparia), lambsquarters (Chenopodium album), morningglory (Ipomoea coccinea), nightshade (eastern black nightshade, Solanum ptycanthum), nutsedge, yellow (yellow nutsedge, Cyperus esculentus), pigweed (Amaranthus retroflexus), ragweed (common ragweed, Ambrosia elation), soybean (Glycine max), common (oilseed) sunflower (Helianthus annuus), Russian thistle (Salsola kali) and velvetleaf (Abutilon theophrasti) were planted into a blend of loam soil and sand and treated preemergence with test chemicals formulated in a non-phytotoxic solvent mixture which included a surfactant.
(§2) At the same time, plants selected from these crop and weed species and also barley (winter barley, Hordeum vulgare), canarygrass (Phalaris minor), chickweed (common chickweed, Stellaria media) windgrass (Apera spica-venti) and deadnettle (henbit deadnettle, Lamium amplexicaule) were planted in pots containing Redi-Earth® planting medium (Scotts Company, 14111 Scottslawn Road, Marysville, Ohio 43041) comprising spaghnum peat moss, vermiculite, wetting agent and starter nutrients and treated with postemergence applications of test chemicals formulated in the same manner. Plants ranged in height from 2 to 18 cm (1- to 4-leaf stage) for postemergence treatments.
(§3) Treated plants and controls were maintained in a greenhouse for 13 to 15 days, after which time all species were compared to controls and visually evaluated. Plant response ratings, summarized in Table C, are based on a scale of 0 to 100 where 0 is no effect and 100 is complete control. A dash (-) response means no test result.

[2] = test system: chamomile (scentless chamomile, Matricaria inodora); experiment: Test D pre-/postemergence: chamomile
Source text: (§4) Seeds of plant species selected from bluegrass (annual bluegrass, Poa annua), blackgrass (Alopecurus myosuroides), canarygrass (Phalaris minor), chickweed (common chickweed, Stellaria media), galium (catchweed bedstraw, Galium aparine), bromegrass, downy (downy bromegrass, Bromus tectorum), field poppy (Papaver rhoeas), field violet (Viola arvensis), foxtail, green (green foxtail, Setaria viridis), deadnettle (henbit deadnettle, Lamium amplexicaule), ryegrass, Italian (Italian ryegrass, Lolium multiflorum), kochia (Kochia scoparia), lambsquarters (Chenopodium album), oilseed rape (Brassica napus), pigweed (Amaranthus retroflexus), Russian thistle (Salsola iberica), chamomile (scentless chamomile, Matricaria inodora), speedwell (bird's-eye speedwell, Veronica persica), barley, spring (spring barley, Hordeum vulgare), wheat, spring (spring wheat, Triticum aestivum), buckwheat, wild (wild buckwheat, Polygonum convolvulus), mustard, wild (wild mustard, Sinapis arvensis), oat, wild (wild oat, Avena fatua), radish, wild (wild radish, Raphanus raphanistrum), windgrass (Apera spica-venti), barley, winter (winter barley, Hordeum vulgare), and wheat, winter (winter wheat, Triticum aestivum) were planted into a silt loam soil and treated preemergence with test chemicals formulated in a non-phytotoxic solvent mixture which included a surfactant. At the same time, these same crop and weed species were planted in pots containing the planting medium comprising spaghnum peat moss, vermiculite, wetting agent and starter nutrients and treated with postemergence applications of the test chemicals formulated in the same manner. Plants ranged in height from 2 to 18 cm (1- to 4-leaf stage).
as §3, with “controlled growth environment” for “greenhouse”, “14” for “13”, “21 days” for “15 days,”, “D,” for “C,”

[3] = test system: bermudagrass (Cynodon dactylon); experiment: Test C pre-/postemergence: bermudagrass
Source text: as §1, §2, §3

[4] = test system: Russian thistle (Salsola iberica); experiment: Test D pre-/postemergence: Russian thistle
Method in brief: (§5)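 Applied as a non-phytotoxic solvent formulation with surfactant, compounds were tested preemergence in silt loam and postemergence on seedlings 2 to 18 cm high in peat-vermiculite medium. Evaluation was visual, 0 meaning no effect and 100 complete control, at 14 to 21 days.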

[5] = test system: barley (winter barley, Hordeum vulgare); experiment: Test C postemergence: barley
Source text: as §2, §3

[6] = test system: buckwheat, wild (wild buckwheat, Polygonum convolvulus); experiment: Test D pre-/postemergence: buckwheat, wild
Method in brief: as §5

[7] = test system: ryegrass, Italian (Italian ryegrass, Lolium multiflorum); experiment: Test D pre-/postemergence: ryegrass, Italian
Source text: as §4
as §3, with “controlled growth environment” for “greenhouse”, “14” for “13”, “21 days” for “15 days,”, “D,” for “C,”

[8] = test system: sedge, umbrella (small-flower umbrella sedge Cyperus difformis); experiment: Test B flooded paddy: sedge, umbrella; settings: Flood; 250 g ai/ha; applied to paddy water at 2-leaf stage; visually evaluated after 13 to 15 days
Method in brief: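 2-leaf plants; pots flooded 3 cm over soil; compound added to paddy water, depth kept constant. Greenhouse 13–15 d. Visual rating vs controls, 0–100 scale (100 = complete control); dash = no result.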

[9] = 31 g ai/ha, scale of 0 to 100, 0 is no effect, 100 is complete control
[10] = 62 g ai/ha, scale of 0 to 100, 0 is no effect, 100 is complete control
[11] = 125 g ai/ha, scale 0 to 100, 0 no effect, 100 complete control
[12] = 250 g ai/ha, scale 0 to 100, 0 no effect, 100 complete control
[13] = Postemergence, 31 g ai/ha, scale 0 to 100 (0 no effect, 100 complete control)
[14] = Postemergence, 62 g ai/ha, scale 0 to 100 (0 no effect, 100 complete control)
[15] = Postemergence, 125 g ai/ha, scale 0 to 100, 0 no effect, 100 complete control
[16] = Postemergence, 250 g ai/ha, scale 0 to 100 (0 no effect, 100 complete control)
[17] = Postemergence, 16 g ai/ha, scale 0 to 100
[18] = Preemergence, 16 g ai/ha, scale 0 to 100 (0 no effect, 100 complete control)
[19] = Preemergence, 31 g ai/ha, scale 0 to 100 (0 no effect, 100 complete control)
[20] = Preemergence, 62 g ai/ha, scale 0 to 100
[21] = Preemergence, 125 g ai/ha, scale 0 to 100
[22] = Preemergence, 250 g ai/ha, scale 0 to 100
[23] = Preemergence, 31 g ai/ha, scale of 0 to 100, 0 is no effect, 100 is complete control
[24] = Preemergence, 125 g ai/ha, scale 0 to 100, 0 no effect, 100 complete control
[25] = Preemergence, 250 g ai/ha, scale 0 to 100, 0 no effect, 100 complete control

Cc1nn(-c2ccc(F)cc2)nc1Oc1ccnc(C(F)(F)F)c1 [Compound 129, 4-[[2-(4-fluorophenyl)-5-methyl-2H-1,2,3-triazol-4-yl]oxy]-2-(trifluoromethyl)pyridine]
Plant response rating, Sunflower [1, 9]: 0
Plant response rating, Sunflower [1, 10]: 0
Plant response rating, Sunflower [1, 11]: 0
Plant response rating, Sunflower [1, 12]: 0
Plant response rating: Chamomile [2, 13]: 30
Plant response rating: Chamomile [2, 14]: 30
Plant response rating: Chamomile [2, 15]: 30
Plant response rating: Chamomile [2, 16]: 35
Plant response rating, Chamomile [2, 17]: 20
Plant response rating, Chamomile [2, 18]: 0
Plant response rating, Chamomile [2, 19]: 30
Plant response rating, Chamomile [2, 20]: 30
Plant response rating, Chamomile [2, 21]: 30
Plant response rating, Chamomile [2, 22]: 100
Plant response rating, Bermudagrass [3, 13]: 40
Plant response rating, Bermudagrass [3, 14]: 45
Plant response rating, Bermudagrass [3, 15]: 60
Plant response rating, Bermudagrass ([3]; Postemergence, 250 g ai/ha, scale 0 to 100): 70
Plant response rating, Bermudagrass [3, 23]: 98
Plant response rating, Bermudagrass ([3]; Preemergence, 62 g ai/ha, scale 0 to 100, 0 no effect, 100 complete control): 98
Plant response rating, Bermudagrass [3, 24]: 98
Plant response rating, Bermudagrass [3, 25]: 98
Plant response rating: Russian Thistle [4, 13]: 98
Plant response rating: Russian Thistle [4, 14]: 100
Plant response rating: Russian Thistle [4, 15]: 100
Plant response rating: Russian Thistle [4, 16]: 100
Plant response rating, Russian Thistle [4, 17]: 98
Plant response rating, Russian Thistle [4, 18]: 80
Plant response rating, Russian Thistle [4, 19]: 100
Plant response rating, Russian Thistle [4, 20]: 100
Plant response rating, Russian Thistle [4, 21]: 100
Plant response rating, Russian Thistle [4, 22]: 100
Plant response rating, Barley ([5]; 31 g ai/ha, scale 0 to 100 (0 no effect, 100 complete control)): 30
Plant response rating, Barley ([5]; 62 g ai/ha, scale 0 to 100 (0 no effect, 100 complete control)): 35
Plant response rating, Barley [5, 11]: 45
Plant response rating, Barley ([5]; 250 g ai/ha, scale 0 to 100): 50
Plant response rating: Buckwheat, Wild [6, 13]: 60
Plant response rating: Buckwheat, Wild [6, 14]: 80
Plant response rating: Buckwheat, Wild [6, 15]: 100
Plant response rating: Buckwheat, Wild [6, 16]: 100
Plant response rating, Buckwheat, Wild [6, 17]: 60
Plant response rating, Buckwheat, Wild [6, 18]: 0
Plant response rating, Buckwheat, Wild [6, 19]: 0
Plant response rating, Buckwheat, Wild [6, 20]: 0
Plant response rating, Buckwheat, Wild [6, 21]: 70
Plant response rating, Buckwheat, Wild [6, 22]: 100
Plant response rating: Ryegrass, Italian [7, 13]: 5
Plant response rating: Ryegrass, Italian [7, 14]: 5
Plant response rating: Ryegrass, Italian [7, 15]: 10
Plant response rating: Ryegrass, Italian [7, 16]: 15
Plant response rating, Ryegrass, Italian [7, 17]: 5
Plant response rating, Ryegrass, Italian [7, 18]: 0
Plant response rating, Ryegrass, Italian [7, 19]: 5
Plant response rating, Ryegrass, Italian [7, 20]: 10
Plant response rating, Ryegrass, Italian [7, 21]: 70
Plant response rating, Ryegrass, Italian [7, 22]: 90

Cc1nn(-c2ccc(F)c(C(F)(F)F)c2)nc1Oc1ccnc(C(F)(F)F)c1 [Compound 147]
Plant response rating, Sunflower [1, 9]: 15
Plant response rating, Sunflower [1, 10]: 15
Plant response rating, Sunflower [1, 11]: 15
Plant response rating, Sunflower [1, 12]: 25
Plant response rating: Chamomile [2, 13]: 60
Plant response rating: Chamomile [2, 14]: 75
Plant response rating: Chamomile [2, 15]: 80
Plant response rating, Chamomile [2, 17]: 45
Plant response rating, Chamomile [2, 18]: 25
Plant response rating, Chamomile [2, 19]: 15
Plant response rating, Chamomile [2, 20]: 90
Plant response rating, Chamomile [2, 21]: 95
Plant response rating, Sedge, Umbrella (0 to 100 scale, 0 is no effect, 100 is complete control) [8]: 80
Plant response rating, Bermudagrass [3, 23]: 100
Plant response rating, Bermudagrass ([3]; Preemergence, 62 g ai/ha, scale of 0 to 100, 0 is no effect, 100 is complete control): 100
Plant response rating, Bermudagrass [3, 24]: 100
Plant response rating, Bermudagrass [3, 25]: 100
Plant response rating: Russian Thistle [4, 13]: 85
Plant response rating: Russian Thistle [4, 14]: 80
Plant response rating: Russian Thistle [4, 15]: 80
Plant response rating, Russian Thistle [4, 17]: 45
Plant response rating: Buckwheat, Wild [6, 13]: 50
Plant response rating: Buckwheat, Wild [6, 14]: 65
Plant response rating: Buckwheat, Wild [6, 15]: 70
Plant response rating, Buckwheat, Wild [6, 17]: 45
Plant response rating, Buckwheat, Wild [6, 18]: 15
Plant response rating, Buckwheat, Wild [6, 19]: 10
Plant response rating, Buckwheat, Wild [6, 20]: 30
Plant response rating, Buckwheat, Wild [6, 21]: 100
Plant response rating: Ryegrass, Italian [7, 13]: 10
Plant response rating: Ryegrass, Italian [7, 14]: 15
Plant response rating: Ryegrass, Italian [7, 15]: 35
Plant response rating, Ryegrass, Italian [7, 17]: 5
Plant response rating, Ryegrass, Italian [7, 18]: 0
Plant response rating, Ryegrass, Italian [7, 19]: 5
Plant response rating, Ryegrass, Italian [7, 20]: 15
Plant response rating, Ryegrass, Italian [7, 21]: 30
